According to ChEMBL document CHEMBL1135381, “Synthesis and structure-activity relationship of 2-(aminoalkyl)-2,3,3a,8-tetrahydrodibenzo[c,f]isoxazolo[2,3-a]azepine derivatives: a novel series of 5-HT(2A/2C) receptor antagonists. Part 2” (Bioorg Med Chem Lett, 2002):

Tests used:
[1] = biological target: T1, 5-hydroxytryptamine receptor 2C (Rattus norvegicus) (UniProt P08909); test: In vivo activity in rat mCPP challenge test following p.o. administration.; format: functional, organism-based
T1 sequence (whole entry): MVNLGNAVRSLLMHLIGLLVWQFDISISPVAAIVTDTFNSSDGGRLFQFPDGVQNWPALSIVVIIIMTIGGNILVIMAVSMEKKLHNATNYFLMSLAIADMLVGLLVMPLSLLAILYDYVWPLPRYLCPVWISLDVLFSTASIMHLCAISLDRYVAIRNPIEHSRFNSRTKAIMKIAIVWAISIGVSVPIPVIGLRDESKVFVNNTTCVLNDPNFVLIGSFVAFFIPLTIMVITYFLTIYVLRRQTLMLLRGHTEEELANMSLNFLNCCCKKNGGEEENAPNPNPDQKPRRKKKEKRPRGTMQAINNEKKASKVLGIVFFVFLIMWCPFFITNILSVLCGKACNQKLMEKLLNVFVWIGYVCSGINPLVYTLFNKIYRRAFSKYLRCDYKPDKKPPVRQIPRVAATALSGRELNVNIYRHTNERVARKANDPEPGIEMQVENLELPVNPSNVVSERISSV

Rattus norvegicus = test: In vivo activity in mCPP challenge test were performed in male Wistar rats by subcutaneous administration; format: functional; conditions: sc
[2] = biological target: Serotonin 3 (5-HT3) receptor; test: Binding affinity for human cloned 5-hydroxytryptamine 3 receptor; format: protein-complex assay
[3] = biological target: 5-hydroxytryptamine receptor 2A (Homo sapiens, UniProt P28223); test: Binding affinity at human cloned 5-hydroxytryptamine 2A receptor expressed in L929 cells by [125I]R91150 displacement.; format: cell-based
5-hydroxytryptamine receptor 2A, sequence (P28223 whole entry): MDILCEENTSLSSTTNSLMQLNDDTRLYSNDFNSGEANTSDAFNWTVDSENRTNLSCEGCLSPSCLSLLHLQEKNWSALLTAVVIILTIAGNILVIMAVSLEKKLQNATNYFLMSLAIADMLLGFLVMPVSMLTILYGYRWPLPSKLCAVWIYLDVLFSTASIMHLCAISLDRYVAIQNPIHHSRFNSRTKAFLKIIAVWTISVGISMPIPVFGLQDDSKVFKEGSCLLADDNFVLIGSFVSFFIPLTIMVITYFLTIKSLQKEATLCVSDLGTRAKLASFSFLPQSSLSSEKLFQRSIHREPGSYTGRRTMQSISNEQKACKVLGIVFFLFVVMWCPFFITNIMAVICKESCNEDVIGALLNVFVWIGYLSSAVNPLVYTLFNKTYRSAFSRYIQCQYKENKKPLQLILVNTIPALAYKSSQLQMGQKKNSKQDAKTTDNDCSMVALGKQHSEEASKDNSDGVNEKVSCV

[4] = biological target: T2, 5-hydroxytryptamine receptor 1A (Homo sapiens, UniProt P08908); test: Binding affinity for human cloned 5-hydroxytryptamine 1A receptor
T2 sequence (P08908 whole entry): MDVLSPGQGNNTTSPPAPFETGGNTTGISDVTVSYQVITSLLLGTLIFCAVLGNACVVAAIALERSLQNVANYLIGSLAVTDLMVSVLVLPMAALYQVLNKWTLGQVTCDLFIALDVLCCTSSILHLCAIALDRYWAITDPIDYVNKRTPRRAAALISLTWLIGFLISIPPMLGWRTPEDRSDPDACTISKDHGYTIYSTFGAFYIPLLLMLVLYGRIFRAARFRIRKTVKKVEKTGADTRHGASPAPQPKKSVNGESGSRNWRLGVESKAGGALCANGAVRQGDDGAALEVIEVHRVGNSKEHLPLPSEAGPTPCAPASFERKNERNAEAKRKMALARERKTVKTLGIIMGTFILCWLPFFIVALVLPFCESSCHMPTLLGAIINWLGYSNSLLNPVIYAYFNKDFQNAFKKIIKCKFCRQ

[5] = biological target: 5-hydroxytryptamine receptor 1D (Homo sapiens, UniProt P28221); test: Binding affinity for human cloned 5-hydroxytryptamine 1D receptor
5-hydroxytryptamine receptor 1D, sequence (P28221 whole entry): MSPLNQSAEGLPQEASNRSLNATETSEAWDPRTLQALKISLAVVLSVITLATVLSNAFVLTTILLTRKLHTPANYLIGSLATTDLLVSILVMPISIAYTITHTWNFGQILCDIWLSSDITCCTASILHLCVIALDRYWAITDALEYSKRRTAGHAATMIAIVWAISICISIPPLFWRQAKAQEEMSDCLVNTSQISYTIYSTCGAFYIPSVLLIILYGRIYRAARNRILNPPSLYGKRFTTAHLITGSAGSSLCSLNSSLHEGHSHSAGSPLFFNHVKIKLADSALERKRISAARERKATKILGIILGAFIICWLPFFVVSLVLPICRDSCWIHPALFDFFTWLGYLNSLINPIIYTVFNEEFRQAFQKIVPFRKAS

[6] = biological target: T3, Alpha-2A adrenergic receptor (Homo sapiens, UniProt P08913); test: Binding affinity for human cloned Alpha-2A adrenergic receptor
T3 sequence (P08913 whole entry): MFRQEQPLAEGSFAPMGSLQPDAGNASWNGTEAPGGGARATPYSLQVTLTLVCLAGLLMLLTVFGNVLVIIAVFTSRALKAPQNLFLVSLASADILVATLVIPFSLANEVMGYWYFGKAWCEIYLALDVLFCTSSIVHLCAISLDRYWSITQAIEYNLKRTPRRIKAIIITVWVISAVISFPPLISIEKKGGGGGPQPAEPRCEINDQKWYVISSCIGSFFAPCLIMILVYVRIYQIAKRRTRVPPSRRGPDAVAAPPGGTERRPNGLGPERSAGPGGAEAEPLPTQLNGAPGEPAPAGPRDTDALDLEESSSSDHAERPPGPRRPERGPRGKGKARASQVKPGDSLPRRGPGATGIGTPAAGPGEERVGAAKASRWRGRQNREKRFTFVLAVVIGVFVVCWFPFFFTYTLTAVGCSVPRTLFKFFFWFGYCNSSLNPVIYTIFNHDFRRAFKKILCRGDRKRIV

[7] = biological target: T4, Alpha-2C adrenergic receptor (Homo sapiens, UniProt P18825); test: Binding affinity for human cloned Alpha-2C adrenergic receptor
T4 sequence (P18825 whole entry): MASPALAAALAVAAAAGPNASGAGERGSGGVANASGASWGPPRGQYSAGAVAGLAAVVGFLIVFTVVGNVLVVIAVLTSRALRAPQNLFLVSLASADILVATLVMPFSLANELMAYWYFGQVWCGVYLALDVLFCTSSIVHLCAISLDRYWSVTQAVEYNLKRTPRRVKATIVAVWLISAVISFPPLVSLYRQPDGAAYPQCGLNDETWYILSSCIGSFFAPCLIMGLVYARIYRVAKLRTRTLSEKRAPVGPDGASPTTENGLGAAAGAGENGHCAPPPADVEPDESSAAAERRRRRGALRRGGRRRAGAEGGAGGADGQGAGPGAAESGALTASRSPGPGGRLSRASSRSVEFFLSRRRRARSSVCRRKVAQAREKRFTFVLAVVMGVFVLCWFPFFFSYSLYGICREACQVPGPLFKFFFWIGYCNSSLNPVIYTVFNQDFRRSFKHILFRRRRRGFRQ

D(4) dopamine receptor = biological target: T5, D(4) dopamine receptor (Homo sapiens, UniProt P21917); test: Binding affinity for human cloned Dopamine receptor D4
T5 sequence (P21917 whole entry): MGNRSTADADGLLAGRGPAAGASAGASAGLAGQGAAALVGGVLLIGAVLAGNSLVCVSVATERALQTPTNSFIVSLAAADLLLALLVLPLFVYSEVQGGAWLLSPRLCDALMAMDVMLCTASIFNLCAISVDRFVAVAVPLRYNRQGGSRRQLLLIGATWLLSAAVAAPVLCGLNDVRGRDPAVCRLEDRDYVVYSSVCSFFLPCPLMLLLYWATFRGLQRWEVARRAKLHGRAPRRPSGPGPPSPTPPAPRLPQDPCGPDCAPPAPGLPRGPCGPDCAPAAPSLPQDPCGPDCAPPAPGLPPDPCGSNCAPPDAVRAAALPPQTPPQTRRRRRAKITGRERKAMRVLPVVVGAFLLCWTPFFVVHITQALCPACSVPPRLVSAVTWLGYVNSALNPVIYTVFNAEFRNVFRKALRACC

D(3) dopamine receptor = D(3) dopamine receptor (Homo sapiens, UniProt P35462); test: Binding affinity for human cloned Dopamine receptor D3
D(3) dopamine receptor, sequence (P35462 whole entry): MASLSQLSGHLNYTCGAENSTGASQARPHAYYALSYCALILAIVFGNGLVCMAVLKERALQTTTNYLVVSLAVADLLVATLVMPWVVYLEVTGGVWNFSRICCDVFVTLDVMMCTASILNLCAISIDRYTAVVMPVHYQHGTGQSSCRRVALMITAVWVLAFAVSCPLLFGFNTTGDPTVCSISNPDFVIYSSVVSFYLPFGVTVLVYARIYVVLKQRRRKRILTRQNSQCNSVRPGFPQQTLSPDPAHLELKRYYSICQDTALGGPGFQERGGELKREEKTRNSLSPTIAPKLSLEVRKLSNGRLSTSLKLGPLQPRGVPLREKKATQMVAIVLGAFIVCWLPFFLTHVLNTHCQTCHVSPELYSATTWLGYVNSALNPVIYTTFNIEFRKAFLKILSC

D(2) dopamine receptor = D(2) dopamine receptor (Rattus norvegicus, UniProt P61169); test: Binding affinity for rat Dopamine receptor D2
D(2) dopamine receptor, sequence (P61169 whole entry): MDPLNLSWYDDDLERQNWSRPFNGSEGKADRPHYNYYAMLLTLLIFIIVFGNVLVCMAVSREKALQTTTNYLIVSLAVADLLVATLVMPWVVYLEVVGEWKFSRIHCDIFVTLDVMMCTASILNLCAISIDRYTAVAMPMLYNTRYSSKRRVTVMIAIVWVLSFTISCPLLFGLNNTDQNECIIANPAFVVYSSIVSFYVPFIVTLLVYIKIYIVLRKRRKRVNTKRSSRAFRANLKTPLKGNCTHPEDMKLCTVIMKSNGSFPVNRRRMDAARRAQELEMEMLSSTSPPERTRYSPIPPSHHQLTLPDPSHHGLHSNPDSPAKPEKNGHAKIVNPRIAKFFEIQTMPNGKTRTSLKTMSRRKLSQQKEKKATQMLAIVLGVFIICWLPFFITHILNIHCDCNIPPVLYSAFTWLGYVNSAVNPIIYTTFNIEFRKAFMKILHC

[8] = biological target: T6, 5-hydroxytryptamine receptor 2C (Homo sapiens, UniProt P28335); test: Binding affinity at human cloned 5-hydroxytryptamine 2C receptor expressed in CHO cells by [3H]mesulergine displacement.; format: cell-based
T6 sequence (P28335 whole entry): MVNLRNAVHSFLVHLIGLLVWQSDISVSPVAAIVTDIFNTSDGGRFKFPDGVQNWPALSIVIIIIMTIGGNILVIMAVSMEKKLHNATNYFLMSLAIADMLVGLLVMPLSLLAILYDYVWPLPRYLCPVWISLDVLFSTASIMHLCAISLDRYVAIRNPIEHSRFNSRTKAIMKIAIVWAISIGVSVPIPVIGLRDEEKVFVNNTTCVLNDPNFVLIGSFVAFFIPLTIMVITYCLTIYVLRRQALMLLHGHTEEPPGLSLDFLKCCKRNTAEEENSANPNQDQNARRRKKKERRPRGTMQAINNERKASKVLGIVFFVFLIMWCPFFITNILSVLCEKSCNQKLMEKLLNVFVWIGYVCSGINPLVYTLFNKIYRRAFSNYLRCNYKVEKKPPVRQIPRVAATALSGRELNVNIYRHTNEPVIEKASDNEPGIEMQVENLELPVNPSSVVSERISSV

Histamine H1 receptor = Histamine H1 receptor (Homo sapiens, UniProt P35367); test: Binding affinity at human cloned Histamine H1 receptor expressed in CHO cells by [3H]pyrilamine displacement.; format: cell-based
Histamine H1 receptor, sequence (P35367 whole entry): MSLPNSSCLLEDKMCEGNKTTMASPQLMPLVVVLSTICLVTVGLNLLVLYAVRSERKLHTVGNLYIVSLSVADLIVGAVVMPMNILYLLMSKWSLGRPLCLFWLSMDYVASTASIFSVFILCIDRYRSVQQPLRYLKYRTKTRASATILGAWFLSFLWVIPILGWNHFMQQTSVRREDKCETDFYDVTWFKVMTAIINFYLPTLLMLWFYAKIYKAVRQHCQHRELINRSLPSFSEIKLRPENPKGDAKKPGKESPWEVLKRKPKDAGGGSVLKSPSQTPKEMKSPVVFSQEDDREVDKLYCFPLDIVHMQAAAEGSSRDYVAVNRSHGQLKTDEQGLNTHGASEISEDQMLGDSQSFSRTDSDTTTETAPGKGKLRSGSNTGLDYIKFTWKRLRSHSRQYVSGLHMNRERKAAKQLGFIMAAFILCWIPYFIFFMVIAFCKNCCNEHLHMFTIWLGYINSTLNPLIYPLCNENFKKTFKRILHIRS

Row | SMILES | ED50 [1] [mg/kg] | ED50 (Rattus norvegicus) [mg/kg] | IC50 [3] [nM] | also measured
1 | CN(C)CC1CC2c3ccccc3Cc3cc(F)ccc3N2O1 (configuration not stated) | 2.5 | – | – | –
2 | CN(C)CC1CC2c3ccc(Cl)cc3Cc3ccccc3N2O1 (configuration not stated) | – | > 2.5 | – | –
3 | CN(C)CC1CC2c3ccccc3Cc3c(F)cccc3N2O1 (configuration not stated) | 2.5 | – | – | –
4 | CN(C)CC1CC2c3cc(F)ccc3Cc3ccccc3N2O1 (configuration not stated) | > 2.5 | > 2.5 | – | –
5 | COc1ccc2c(c1)C1CC(CN(C)C)ON1c1ccccc1C2 (configuration not stated) | > 2.5 | – | – | –
6 | Cc1cccc2c1Cc1ccccc1C1CC(CN(C)C)ON21 (configuration not stated) | > 2.5 | – | – | –
7 | Cc1cccc2c1C1CC(CN(C)C)ON1c1ccccc1C2 (configuration not stated) | > 2.5 | – | – | –
8 | CN(C)CC1CC2c3ccccc3Cc3ccc(Cl)cc3N2O1 (configuration not stated) | 0.63 | 0.16 | – | pIC50 [2]: 6.32
9 | CN(C)CC1CC2c3cccc(C(F)(F)F)c3Cc3ccccc3N2O1 (configuration not stated) | > 2.5 | – | – | –
10 | CN(C)CC1CC2c3cccc(F)c3Cc3ccccc3N2O1 (configuration not stated) | 2.5 | 2.5 | 31.6 | –
11 | Cc1ccc2c(c1)N1OC(CN(C)C)CC1c1ccccc1C2 (configuration not stated) | 2.5 | 0.16 | – | IC50 [4]: > 1000 nM; IC50 [5]: > 1000 nM; pIC50 [2]: < 6; IC50 [6]: > 1000 nM; IC50 [7]: > 1000 nM; IC50 (D(4) dopamine receptor): > 1000 nM; IC50 (D(3) dopamine receptor): > 1000 nM; IC50 (D(2) dopamine receptor): > 1000 nM
12 | CN(C)CC1CC2c3c(cccc3C(F)(F)F)Cc3ccccc3N2O1 (configuration not stated) | > 2.5 | 2.5 | – | –
13 | CN(C)CC1CC2c3cc(C(F)(F)F)ccc3Cc3ccccc3N2O1 (configuration not stated) | > 2.5 | 2.5 | > 1000 | IC50 [8]: > 1000 nM; IC50 (Histamine H1 receptor): > 1000 nM
14 | CN(C)CC1CC2c3ccccc3Cc3ccc(-c4ccccc4)cc3N2O1 (configuration not stated) | > 2.5 | > 2.5 | – | –
15 | Cc1ccc2c(c1)Cc1ccccc1N1OC(CN(C)C)CC21 (configuration not stated) | 2.5 | – | 10.5 | –
16 | CN(C)CC1CC2c3ccccc3Cc3ccc(Br)cc3N2O1 (configuration not stated) | 2.5 | – | – | –
17 | CN(C)CC1CC2c3ccccc3Cc3ccc(F)cc3N2O1 (configuration not stated) | 2.5 | – | 1.15 | pIC50 [2]: < 6; IC50 (D(2) dopamine receptor): > 1000 nM
18 | CN(C)CC1CC2c3cc(F)ccc3Cc3ccc(F)cc3N2O1 (configuration not stated) | 0.63 | 0.04 | 10.7 | IC50 [4]: > 1000 nM; IC50 [5]: > 1000 nM; pIC50 [2]: < 6; IC50 [6]: > 1000 nM; IC50 [7]: > 1000 nM; IC50 (D(4) dopamine receptor): > 1000 nM; IC50 (D(3) dopamine receptor): > 1000 nM
19 | CN(C)CC1CC2c3ccccc3Cc3cccc(Cl)c3N2O1 (configuration not stated) | > 2.5 | – | – | –
20 | CN(C)CC1CC2c3ccccc3Cc3ccccc3N2O1 (configuration not stated) | 0.63 | 0.04 | – | –
21 | CN(C)CC1CC2c3cccc(Cl)c3Cc3ccccc3N2O1 (configuration not stated) | > 2.5 | – | > 1000 | IC50 [8]: > 1000 nM; IC50 (Histamine H1 receptor): > 1000 nM
22 | CN(C)CC1CC2c3c(F)cccc3Cc3ccccc3N2O1 (configuration not stated) | – | > 2.5 | > 1000 | IC50 [8]: > 1000 nM; IC50 (Histamine H1 receptor): > 1000 nM
